Measured values reported in the supplement of paper PMC4862054.
Blank lines part the entries; values can stand above or below the compound they belong to.

Tests used:
Settings in all cases: 72 h
BT-474 [1] = test system: BT-474
Outline: (§1)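 In this assay, breast cancer cell lines spent 72 h with compound at 5 concentrations in 10-fold steps over a compound-specific 10,000-fold range. The first readout was cell death by CellTox Green fluorescence, and the second was viability by CellTiter-Glo luminescence, each normalised per plate to 0.1 % DMSO and a positive kill control. EC50 came from the dose-response curves, censored at the top concentration.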

BT-549 [2] = test system: BT-549
Outline: as §1

CAL-120 [3] = test system: CAL-120
Outline: as §1

CAL-148 [4] = test system: CAL-148
Outline: as §1

CAL-51 [5] = test system: CAL-51
Outline: as §1

CAL-85-1 [6] = test system: CAL-85-1
Outline: as §1

DU-4475 [7] = test system: DU-4475
Outline: as §1

HCC1143 [8] = test system: HCC1143
Outline: as §1

HCC1937 [9] = test system: HCC1937
Outline: as §1

HDQ-P1 [10] = test system: HDQ-P1
Outline: as §1

Hs578T [11] = test system: Hs578T
Outline: as §1

MDA-MB-436 [12] = test system: MDA-MB-436
Outline: as §1

MDA-MB-453 [13] = test system: MDA-MB-453
Outline: as §1

MDA-MB-468 [14] = test system: MDA-MB-468
Outline: as §1

MFM-223 [15] = test system: MFM-223
Outline: as §1

SK-BR-3 [16] = test system: SK-BR-3
Outline: as §1

CAL-148 [17] = test system: CAL-148; remark: listed apart in the source
Outline: (§2)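 Breast cancer cell lines in 20 µl suspension were seeded onto 384-well plates pre-loaded with compound dissolved in 5 µl medium, then incubated 72 h. For viability, 2.5 µl CellTiter-Blue was added for 2 h at 37 °C and fluorescence read at 560/590 nm. Each plate was normalised to vehicle and a positive kill control and checked by Z'-factor. EC50 comes from the fitted percent-inhibition dose-response curve, censored at the highest concentration; rows with zero drug sensitivity score were dropped.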

CAL-51 [18] = test system: CAL-51; remark: listed apart in the source
Outline: as §2

CAL-85-1 [19] = test system: CAL-85-1; remark: listed apart in the source
Outline: as §2

DU-4475 [20] = test system: DU-4475; remark: listed apart in the source
Outline: as §2

HDQ-P1 [21] = test system: HDQ-P1; remark: listed apart in the source
Outline: as §2

MDA-MB-453 [22] = test system: MDA-MB-453; remark: listed apart in the source
Outline: as §2

BT-549 [23] = test system: BT-549; remark: listed apart in the source
Outline: as §2

CAL-120 [24] = test system: CAL-120; remark: listed apart in the source
Outline: as §2

HCC1143 [25] = test system: HCC1143; remark: listed apart in the source
Outline: as §2

HCC1599 = test system: HCC1599
Outline: as §2

HCC1937 [26] = test system: HCC1937; remark: listed apart in the source
Outline: as §2

Hs578T [27] = test system: Hs578T; remark: listed apart in the source
Outline: as §2

MDA-MB-468 [28] = test system: MDA-MB-468; remark: listed apart in the source
Outline: as §2

MFM-223 [29] = test system: MFM-223; remark: listed apart in the source
Outline: as §2

SK-BR-3 [30] = test system: SK-BR-3; remark: listed apart in the source
Outline: as §2

HCC1937 [31] = test system: HCC1937; remark: listed apart in the source
Procedure: (§3)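 Drug sensitivity and resistance testing (DSRT) of breast cancer cell lines in 384-well plates, 5 concentrations in 10-fold dilutions over a compound-specific 10,000-fold range. After 72 h, cytotoxicity was read by CellTox Green fluorescence and viability by CellTiter-Glo luminescence (multiplexed), normalised to DMSO and benzethonium chloride controls. EC50 is the inflection point of the fitted dose-response curve (bottom asymptote free, so it can be relative for partial curves) and is censored at the highest tested concentration. Rows with DSS 0 (no meaningful response) were excluded.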

MDA-MB-436 [32] = test system: MDA-MB-436; remark: listed apart in the source
Outline: as §2

MDA-MB-453 [33] = test system: MDA-MB-453; remark: listed apart in the source
Procedure: as §3

BT-474 [34] = test system: BT-474; remark: listed apart in the source
Procedure: as §3

HCC1143 [35] = test system: HCC1143; remark: listed apart in the source
Procedure: as §3

Compound: CO[C@H]1C[C@@H]2CC[C@@H](C)[C@@](O)(O2)C(=O)C(=O)N2CCCC[C@H]2C(=O)O[C@H]([C@H](C)C[C@@H]2CC[C@@H](O)[C@H](OC)C2)CC(=O)[C@H](C)/C=C(\C)[C@@H](O)[C@@H](OC)C(=O)[C@H](C)C[C@H](C)/C=C/C=C/C=C/1C [Sirolimus]
EC50, CellTiter-Glo (BT-474 [1]): 3.4 nM
EC50, CellTiter-Glo (BT-549 [2]): 1.85 nM
EC50, CellTiter-Glo (CAL-120 [3]): 3.4 nM
EC50, CellTiter-Glo (CAL-148 [4]): 3.6 nM
EC50, CellTiter-Glo (CAL-51 [5]): 2.33 nM
EC50, CellTiter-Glo (CAL-85-1 [6]): 0.95 nM
EC50, CellTiter-Glo (DU-4475 [7]): 16.1 nM
EC50, CellTiter-Glo (HCC1143 [8]): 3.09 nM
EC50, CellTiter-Glo (HCC1937 [9]): 6.4 nM
EC50, CellTiter-Glo (HDQ-P1 [10]): 7.92 nM
EC50, CellTiter-Glo (Hs578T [11]): 1.24 nM
EC50, CellTiter-Glo (MDA-MB-436 [12]): 2.96 nM
EC50, CellTiter-Glo (MDA-MB-453 [13]): 4.84 nM
EC50, CellTiter-Glo (MDA-MB-468 [14]): 0.65 nM
EC50, CellTiter-Glo (MFM-223 [15]): 3.87 nM
EC50, CellTiter-Glo (SK-BR-3 [16]): 4.12 nM
EC50, CellTiter-Blue viability (CAL-148 [17]): 1.13 nM
EC50, CellTiter-Blue viability (CAL-51 [18]): 0.79 nM
EC50, CellTiter-Blue viability (CAL-85-1 [19]): 0.46 nM
EC50, CellTiter-Blue viability (DU-4475 [20]): 1.24 nM
EC50, CellTiter-Blue viability (HDQ-P1 [21]): 0.55 nM
EC50, CellTiter-Blue viability (MDA-MB-453 [22]): 0.71 nM
EC50, CellTiter-Blue viability (BT-549 [23]): 0.2 nM
EC50, CellTiter-Blue viability (CAL-120 [24]): 1.32 nM
EC50, CellTiter-Blue viability (HCC1143 [25]): 1.33 nM
EC50, CellTiter-Blue viability (HCC1599): 1.57 nM
EC50, CellTiter-Blue viability (HCC1937 [26]): 0.16 nM
EC50, CellTiter-Blue viability (Hs578T [27]): 0.14 nM
EC50, CellTiter-Blue viability (MDA-MB-468 [28]): 0.26 nM
EC50, CellTiter-Blue viability (MFM-223 [29]): 0.18 nM
EC50, CellTiter-Blue viability (SK-BR-3 [30]): 3.42 nM
EC50, CellTox Green (HCC1937 [31]): 98.7 nM

Compound: CC/C(=C(\c1ccccc1)c1ccc(OCCN(C)C)cc1)c1ccccc1 [Tamoxifen]
EC50, CellTiter-Glo (CAL-120 [3]): > 10000 nM
EC50, CellTiter-Glo (CAL-51 [5]): 233 nM
EC50, CellTiter-Glo (HCC1937 [9]): > 10000 nM
EC50, CellTiter-Glo (MDA-MB-453 [13]): 2560 nM
EC50, CellTiter-Glo (MFM-223 [15]): 3370 nM
EC50, CellTiter-Glo (SK-BR-3 [16]): > 10000 nM
EC50, CellTiter-Blue viability (MDA-MB-453 [22]): 5970 nM
EC50, CellTiter-Blue viability (BT-549 [23]): 3420 nM
EC50, CellTiter-Blue viability (MDA-MB-436 [32]): 7520 nM
EC50, CellTiter-Blue viability (MDA-MB-468 [28]): 4420 nM
EC50, CellTox Green (HCC1937 [31]): 325 nM
EC50, CellTox Green (MDA-MB-453 [33]): 7240 nM

Compound: COc1cc2c(N3CCN(C(=O)Nc4ccc(OC(C)C)cc4)CC3)ncnc2cc1OCCCN1CCCCC1 [Tandutinib]
EC50, CellTiter-Blue viability (CAL-148 [17]): 605 nM

Compound: Cn1nnc2c(C(N)=O)ncn2c1=O [Temozolomide]
EC50, CellTiter-Blue viability (HDQ-P1 [21]): 7850 nM
EC50, CellTiter-Blue viability (BT-549 [23]): 1330 nM

Now from value to compound, other results behind:

EC50, CellTiter-Glo (SK-BR-3 [16]): 1460 nM
Compound: CN1CCN(c2nc(C3=C(c4c[nH]c5ccccc45)C(=O)NC3=O)c3ccccc3n2)CC1 [Sotrastaurin]
EC50, CellTiter-Glo (DU-4475 [7]): 6790 nM
EC50, CellTiter-Glo (HDQ-P1 [10]): > 10000 nM

EC50, CellTiter-Blue viability (MDA-MB-453 [22]): 1410 nM
Compound: C[C@@H](C(=O)O)c1ccc(-c2ccccc2)c(F)c1 [Tarenflurbil]
EC50, CellTox Green (BT-474 [34]): > 10000 nM

EC50, CellTiter-Glo (BT-549 [2]): 7980 nM
EC50, CellTiter-Glo (HCC1143 [8]): 2350 nM
EC50, CellTiter-Glo (HCC1937 [9]): 1600 nM
EC50, CellTiter-Glo (SK-BR-3 [16]): 8820 nM
Compound: CN1CCc2c(c3ccccc3n2Cc2ccc(C(=O)NO)cc2)C1 [Tubastatin A]
EC50, CellTiter-Glo (CAL-51 [5]): 297 nM
EC50, CellTiter-Glo (CAL-85-1 [6]): 6160 nM
EC50, CellTox Green (BT-474 [34]): > 10000 nM
EC50, CellTox Green (HCC1143 [35]): 297 nM
